According to patent US20090176817A1, “Method of Treatment of Diarrhea-Predominant Irritable Bowel Syndrome in a Subject” (priority 2005, published 2009):

Experiments:
[1] = tested on: diarrhea-predominant IBS subjects; assay: Study S241.3.009: safety; format: in vivo, human; design: Incidence of bilirubin increase: dose or concentration left out as unconfirmed; conditions: for Constipation: human, 26 weeks
Excerpt: The primary efficacy parameter was the overall response rate for IBS symptoms, based on the weekly question concerning adequate relief of IBS symptoms (abdominal pain/discomfort, abnormal bowel habits) over the 26 weeks period. A responder was a subject who responded “yes” at least 50% of the time during his/her treatment period, with minimum treatment duration of four weeks. The two main secondary efficacy parameters were overall responder rate based on the weekly question on adequate relief of abdominal pain/discomfort and abnormal bowel habits during the 26-week treatment period. The onset of action of cilansetron was also examined using daily diary data (stool frequency, and ratings of urgency and severity) during the initial 8 weeks of trial participation. An additional key secondary efficacy parameter was the number of months (one month equals four weeks) up to six months (24-weeks) that a subject was a responder for IBS symptoms, where a responder was defined as a subject who answered the weekly question with “yes” at least twice for that month. The responder rate for the weekly diary questions on adequate relief at each month and all months, the adequate relief rate, the number of subjects with adequate relief by week, daily diary questions, IBS-QOL scores, and the interruption of activities were also assessed. Safety was evaluated by physical examination, ECG, vital signs, laboratory evaluations, concomitant medications, and AEs.

clinical = format: in vitro ADME; conditions: both sexes, human, serum, % free in serum
Method: Steady state serum samples for measurement of cilansetron protein binding were collected at predose, and 1 and 1.5 hours postdose on Day 6.

[2] = both, human, in vivo
Method: Diurnal variations in cilansetron pharmacokinetics have been evaluated in a randomized, double-blind, placebo-controlled, 2-way crossover study in 9 male and 9 female healthy subjects, aged 21 to 39 years. Subjects were randomized to receive 2 treatments (cilansetron 16 mg tablet and placebo) during the 2 treatment periods. During each treatment period, subjects received a single dose of their assigned treatment on the first day (Day 1), after which they received the same treatment TID for 4 days (Days 2-5). There was a 10-day washout period between treatment periods. Subjects were fasted for at least 2 hours before and following each dose, and heavy physical activity was restricted. Serial blood samples for the measurement of multiple-dose pharmacokinetics of cilansetron were collected up to 24 hours postdose on Day 5.

[3] = tested on: diarrhea-predominant IBS subjects; assay: Study S241.3.006: safety; format: in vivo, human; conditions: for Constipation: human, in vivo, 12 weeks
Method: Safety was evaluated by physical examination, ECG, vital signs, clinical laboratory evaluations, concomitant medications, and AEs. An independent Gastrointestinal Events Review Board (GERB) was established to advise on gastrointestinal (GI) AEs during the course of the study and other safety events as considered necessary.

[4] = format: in vitro ADME; conditions: human
Method: Protein binding was also evaluated in an in vitro study in human, mouse, rat, and dog plasma using equilibrium dialysis (12-14K molecular weight cut-off membrane). […] This study also measured the binding of (^14C)-cilansetron to purified human serum albumin at cilansetron concentrations ranging from 30-3000 ng/mL and to purified human alpha-1 acid glycoprotein (AAG) at concentrations ranging from 30-10000 ng/mL.

[5] = tested on: diarrhea-predominant IBS subjects; assay: Study S241.3.011: safety; format: in vivo, human
Excerpt: The primary efficacy parameter was the number of months that a subject was a responder for IBS symptoms (abdominal pain, abdominal discomfort, abnormal bowel habits) over the 12-week treatment period. A responder for a month (monthly responder) was defined as a subject who answered the weekly question with “yes” at least twice for that month. The two main secondary efficacy parameters were the monthly responder rates based on the “adequate relief” questions regarding abdominal pain/discomfort and abnormal bowel habits during the 12-week treatment period. The overall response rate and responder rate for the weekly diary questions on adequate relief at each month and all months, the adequate relief rate, the number of subjects with adequate relief by week, daily diary questions, IBS-QOL scores, and the interruption of activities were also assessed. Safety was evaluated by physical examination, ECG, vital signs, laboratory evaluations, concomitant medications, and AEs.

[6] = tested on: diarrhea-predominant IBS subjects; assay: Study S241.3.006: interruption of activities assessment; format: in vivo, human; conditions: for Percentage of Subjects Who Worsened from Baseline: Interruption of Activities: S241.3.006, 2 mg TID, observed value
Excerpt: Studies S24 1.3.OO6, S24 1.3.0 1 1, and S24 1.3.009 used the following efficacy measurements: • The subjects answered the following three questions with “yes” or “no” using a phone diary at the end of each week: • a) During the last week, did you experience adequate relief of your IBS symptoms, such as abdominal pain, abdominal discomfort, abnormal bowel habits? • b) During the last week, did you experience adequate relief of your abdominal pain and/or discomfort? • c) During the last week, did you experience adequate relief of your abnormal bowel habits? • The subjects rated the following symptoms using the phone diary at the end of each day: • abdominal pain/discomfort (five-point scale); • stool consistency (seven-point Bristol Stool Scale); • stool frequency (number of bowel movements each day); • urgency (five-point scale); • straining (yes or no); • feeling of incomplete defecation (yes or no); • bloating or feeling of abdominal distension (five-point scale). • In Studies S241 A006 and S241.3.009, subjects completed the IBS-QOL Survey at Baseline (Day 1) and at the end of treatment. In Study S24 1.3.0 1 1, subjects completed the IBS-QOL Survey at Baseline (Day 1), at the end of the three-month treatment period, and at the end of rerandomized treatment.
Other secondary efficacy parameters for all three studies included: • Responder rate for the weekly diary questions on adequate relief at each month, where a responder for a month (monthly responder) was defined as a subject who answered the weekly question with “yes” at least twice for that month. The responder rate was the percentage of responders within a treatment group. The all-month responder rate for the weekly diary questions on adequate relief was also evaluated, where an all-month responder was defined as a subject who answered the weekly question with “yes” at least twice for each month. The all-month responder rate was the percentage of all-month responders within a treatment group; • Adequate relief rate for the weekly diary questions was calculated for each subject as the number of weekly assessments with adequate relief (“yes”) divided by the total number of weekly assessments; • Percentage of subjects with adequate relief for the weekly diary questions at each week; • Daily diary questions regarding abdominal pain/discomfort (five-point scale), stool consistency (seven-point scale), stool frequency (number of bowel movements each day), straining (yes or no), urgency (five-point scale), feeling of incomplete evacuation (yes or no), and bloating or feeling of abdominal distention (five-point scale); • QOL data assessed by the IBS-QOL questionnaire; and • Question to determine the interruption of activities.

Cc1nccn1C[C@H]1CCc2c(c3cccc4c3n2CCC4)C1=O [Cilansetron, (R)-(−)-4,5,6,8,9,10-hexahydro-10-[(2-methyl-1H-imidazol-1-yl)methyl]-11H-pyrido-[3,2,1-jk]-carbazol-11-one]
Number of subjects who died ([1]; 2 mg TID, 401 randomized, S241.3.009): 0 n (%) | Constipation ([1]; female, in vivo): 17% | Abdominal pain aggravated ([1]; in vivo): five | Incidence of bilirubin increase ([1]; in vivo): 8% | Rectal hemorrhage ([1]; in vivo): three | Suspected ischemic colitis ([1]; in vivo): three | Constipation ([1]; male, in vivo): 7% | fraction unbound (clinical): 0.055 | AUC ratio 0-8 h/8-16 h [2]: 106 (99, 115) % | AUC ratio 0-8 h/16-24 h [2]: 110 (103, 119) % | AUC ratio 8-16 h/16-24 h [2]: 104 (96, 111) % | Cmax ratio 0-8 h/8-16 h [2]: 130 (111, 153) % | Cmax ratio 0-8 h/16-24 h [2]: 133 (113, 157) % | Cmax ratio 8-16 h/16-24 h [2]: 102 (87, 120) % | Mean Cmax higher after morning dose than mid-day and evening doses ([2]; 16 mg): 30-33% | Number of subjects who died ([3]; 2 mg TID, 352 randomized, S241.3.006): 0 n (%) | Constipation ([3]; female): 23% | Constipation ([3]; male): 8% | Protein bound [4]: 93-96% | Number of subjects who died during the three-month treatment period ([5]; 2 mg TID, 388 randomized, S241.3.011): 1 (<1) n (%) | Constipation ([5]; female, human, in vivo, 3 months): 26% | Fecal occult blood positive and/or blood in stool ([5]; human, in vivo): 7% | Abdominal distension ([5]; human, in vivo, 3 months): 5% | Abdominal pain NOS ([5]; human, in vivo, 3 months): 6% | Abdominal pain upper ([5]; human, in vivo, 3 months): 2% | Constipation ([5]; human, in vivo, 3 months): 20% | Flatulence ([5]; human, in vivo, 3 months): 4% | Serious AEs ([5]; human, in vivo, 3 months): 2% | Subjects with at least one TEAE ([5]; human, in vivo, 3 months): 69% | At least one TEAE, entire four-month period ([5]; human, in vivo, 4 months): 78% | TEAEs leading to permanent discontinuation ([5]; in vivo): Eleven | Constipation ([5]; male, human, in vivo, 3 months): 8% | Subjects “not at all or rarely” bothered by IBS symptoms ([6]; Endpoint): 42% | Subjects worsened from Baseline, interruption of activities ([6]; Month 1): 8% | Percentage of Subjects Who Worsened from Baseline: Interruption of Activities ([6]; Month 1): 8% | Percentage of Subjects Who Worsened from Baseline: Interruption of Activities ([6]; Month 2): 5% | Percentage of Subjects Who Worsened from Baseline: Interruption of Activities ([6]; Month 3): 4%
